Reference: patent US20210290651A1, “METHODS OF TREATING VIRAL INFECTIONS USING INHIBITORS OF NUCLEOTIDE SYNTHESIS PATHWAYS” (priority 2020, published 2021)
Read-outs that look alike come from different tables or passages of the source.

How the values were obtained:
Yellow Fever = conditions: Vero (monkey kidney); cited from earlier work
[1] = tested on: A549 or HEp-2 (human epithelial); conditions: A549 or HEp-2, RSV row; cited from earlier work
FMDV (O/MY98/BY/2010) = conditions: cited from earlier work
HRV1A strain 2060 = assay: Rhinovirus antiviral assay, inhibition of virus-induced cell killing (XTT) in H1-HeLa cells; format: cell-based; conditions: Enterovirus
HIV1 = conditions: HIV1, TZM-bl(human cervical tumor); cited from earlier work
RNA virus = assay: Daily brequinar for five days in subject infected with an RNA virus (Example 19); format: in vivo; conditions: single daily dose for five consecutive days, first peak in brequinar level
Description: The mechanism by which administration of a DHODH inhibitor according to a daily dosing regimen inhibits viral replication is illustrated below. […] Throughout the course of the dosing regimen, levels of intracellular pyrimidines, such as uridine, and viral replication are measured.

in vivo = conditions: rodents
solid tumor malignancies = conditions: 5-day period followed by 3-week gap, or once per week for three weeks followed by 1-week gap; cited from earlier work
[2] = tested on: acute myeloid leukemia (AML); assay: Clinical response of patients with AML to brequinar-containing composition; format: in vivo, human
Influenza A H1N1(BIRFLU) [3] = conditions: MDCK (canine kidney); cited from earlier work
[4] = in vivo
MDCK (canine kidney) = conditions: H1N1(BIRFLU) row; cited from earlier work
[5] = in vivo; remark: listed apart in the source
DHODH [6] = target: DHODH (Homo sapiens, UniProt Q02127); conditions: concentrations >1 μM
Sequence of DHODH (Homo sapiens, UniProt Q02127) (Q02127 whole entry): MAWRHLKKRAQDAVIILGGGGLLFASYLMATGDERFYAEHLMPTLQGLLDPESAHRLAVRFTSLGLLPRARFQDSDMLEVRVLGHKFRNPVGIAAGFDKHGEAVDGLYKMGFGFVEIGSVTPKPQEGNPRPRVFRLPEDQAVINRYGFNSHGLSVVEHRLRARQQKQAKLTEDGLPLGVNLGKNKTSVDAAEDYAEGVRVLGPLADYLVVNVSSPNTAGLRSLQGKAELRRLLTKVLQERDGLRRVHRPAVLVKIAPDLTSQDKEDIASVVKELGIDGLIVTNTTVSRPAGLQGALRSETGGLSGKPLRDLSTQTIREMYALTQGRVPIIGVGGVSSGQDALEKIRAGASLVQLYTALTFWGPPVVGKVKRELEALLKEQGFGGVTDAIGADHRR

[7] = Adverse events in subjects receiving brequinar intravenously once a week; conditions: IV once a week, 209 subjects
[8] = tested on: A549 (human alveolar basal epithelial); conditions: A549, H1N1(BIRFLU) row; cited from earlier work
[9] = tested on: Primary Human Fibroblasts; conditions: CMV row; cited from earlier work
[10] = tested on: Influenza A H1N1 (New Caledonia); conditions: 16HBE (human bronchial epithelial); cited from earlier work
Dengue = conditions: A549 (human alveolar basal epithelial); cited from earlier work
[11] = tested on: A549 (human alveolar basal epithelial); conditions: A549, Dengue row; cited from earlier work
in vitro = conditions: monkey, CC50, Vero E6
[12] = tested on: TZM-bl(human cervical tumor); conditions: HIV1 row; cited from earlier work
[13] = Cytotoxicity in H1-HeLa cells (XTT); conditions: human, H1-HeLa cells (CRL-1958)
CMV = conditions: Primary Human Fibroblasts; cited from earlier work
Vero (monkey kidney) = conditions: cited from earlier work
VSV = conditions: HuH7 (human hepatocellular carcinoma); cited from earlier work
CYP = CYP inhibition
[14] = tested on: Respiratory Syncytial (RSV); conditions: A549 or HEp-2 (human epithelial); cited from earlier work
SARS-CoV-2 = assay: microbe, parasite or virus in culture; format: cell-based
[15] = tested on: HuH7 (human hepatocellular carcinoma); conditions: cited from earlier work
FMDV (A/GD/MM/2013) = conditions: cited from earlier work
Influenza B (Brisbane) = conditions: MDCK (canine kidney); cited from earlier work
Influenza A H3N2 = conditions: Influenza A H3N2, MDCK (canine kidney); cited from earlier work
Vero76 (monkey kidney) = conditions: Vero76, Zika row; cited from earlier work
DHODH [16] = tested on: DHODH
Influenza A H1N1(BIRFLU) [17] = conditions: A549 (human alveolar basal epithelial); cited from earlier work
Ebola = conditions: HeLa (human cervical tumor); cited from earlier work
AML = conditions: cited from earlier work
IBRS-2 (swine kidney) = conditions: cited from earlier work
[18] = tested on: 16HBE (human bronchial epithelial); conditions: H1N1 (New Caledonia) row; cited from earlier work
Zika = conditions: Vero76 (monkey kidney); cited from earlier work
[19] = tested on: Influenza A H1N1(California); conditions: MDCK (canine kidney); cited from earlier work

## Cc1c(-c2ccc(-c3ccccc3F)cc2)nc2ccc(F)cc2c1C(=O)O [brequinar, 6-fluoro-2-(2′-fluoro-1,1′ biphenyl-4-yl)-3-methyl-4-quinoline carboxylic acid]
Yellow Fever
  EC50: 20 nM
[1]
  CC50: > 10000 nM
FMDV (O/MY98/BY/2010)
  EC50: 30000 nM
HRV1A strain 2060
  EC50: 50 nM
HIV1
  EC50: 40 nM
RNA virus
  intracellular pyrimidine levels: dramatic decrease in the intracellular pyrimidine pool
In vivo
  Kp: ~0.5
Solid tumor malignancies
  efficacy in solid tumor malignancies: ineffective
[2]; first patient (Example 12): reduction in bone marrow blast count, improved extramedullary hematopoiesis, more differentiated peripheral blasts
  response: positive response
[2]; patient of Example 14: trend towards differentiation of peripheral blasts
  response: positive response
[2]; second patient (Example 13): lowering of peripheral blasts, increase in absolute neutrophil count, greater differentiation
  response: positive response
Influenza A H1N1(BIRFLU) [3]
  EC50: 580 nM
[4]
  cumulative effect of repeated doses: No cumulative effective of repeated doses
MDCK (canine kidney)
  CC50: > 50000 nM
[5]
  equivalence of oral and IV formulations: oral and IV formulations are equivalent
DHODH [6]
  DHODH inhibition: almost completely inhibited
[7]
  Infection: No. of Patients: 7
  Infection: No. of Patients Experiencing the AE, Max Grade 1: 4
  Infection: No. of Patients Experiencing the AE, Max Grade 2: 3
  Infection: No. of Patients Experiencing the AE, Max Grade 3: 0
  Infection: No. of Patients Experiencing the AE, Max Grade 4: 0
  Infection: Percent: 3.3%
[8]
  CC50: > 50000 nM
[9]
  CC50: > 50000 nM
[10]
  EC50: 140 nM
Dengue
  EC50: 78 nM
[11]
  CC50: > 5000 nM
In vitro
  CC50 at 3 days: > 50000 nM
[12]
  CC50: > 30000 nM
[13]
  CC50 at 3 days: 300 nM
CMV
  EC50: 800 nM
Vero (monkey kidney)
  CC50: > 50000 nM
VSV
  EC50: 14 nM
CYP
  CYP inhibition: Does not inhibit CYP
[14]
  EC50: 53 nM
SARS-CoV-2
  E(Max): 88.2
  lowering of the EC50 of remdesivir by brequinar: > 40 fold
SARS-CoV-2; Severe acute respiratory syndrome coronavirus 2, Vero C1008
  EC90: 345 nM
SARS-CoV-2; Severe acute respiratory syndrome coronavirus 2, Vero C1008, Vero E6, read-out: maximal inhibitory activity (Emax) compared to the no infection control
  Emax: 88.2%
[15]
  CC50: > 25000 nM
FMDV (A/GD/MM/2013)
  EC50: < 3000 nM
Influenza B (Brisbane)
  EC50: 250 nM
Influenza A H3N2
  EC50: 620 nM
Vero76 (monkey kidney)
  CC50: > 50000 nM
DHODH [16]; human, in vivo
  DHO plasma level threshold achieved: 133 ng/mL
DHODH [16]; patient with AML of Example 14
  time to achieve DHO plasma level threshold: less than 2 hours
Influenza A H1N1(BIRFLU) [17]
  EC50: 140 nM
Ebola
  EC50: 100 nM
AML; daily administration of high doses
  toxicity: weight loss, anemia, and thrombocytopenia
AML; only when elevated plasma levels are maintained for extended periods
  leukemia-initiating cell activity: decreases leukemia-initiating cell activity
IBRS-2 (swine kidney)
  CC50: 100000 nM
[18]
  CC50: > 50000 nM
Zika
  EC50: 80 nM
[19]
  EC50: 780 nM
